US20150218654A1, “METHODS FOR PREDICTING MULTIPLE MYELOMA TREATMENT RESPONSE” (INSERM (INSTITUT NATIONAL DE LA SANTÉ ET DE LA RE- CHERCHE …, priority 2012, published 2015)
Like-named read-outs stand apart in the source and are kept apart here.

Columns and labels:
[1] = tested on: human myeloma cell lines (HMCLs); assay: Growth assay for myeloma cells (Cell Titer Glo, 4 days, graded DNMTi concentrations); type: cell-based; settings: for IC50: Homo sapiens, 96 h, 4 days
Method: HMCLs were cultured for 4 days in 96-well flat-bottom microtiter plates in RPMI 1640 medium, 10% FCS, 2 ng/ml IL-6 culture medium (control), with graded decitabine concentrations. Data are mean values plus or minus standard deviation (SD) of 5 experiments determined on sextuplet culture wells.
HMCLs were cultured for 4 days in 96-well flat-bottom microtiter plates in RPMI 1640 medium, 10% FCS, 2 ng/ml IL-6 culture medium (control), and graded 5-azacitidine concentrations. Data are mean values plus or minus standard deviation (SD) of 5 experiments determined on sextuplet culture wells.
HMCLs were cultured for 4 days in 96-well flat-bottom microtiter plates in RPMI 1640 medium, 10% FCS, 2 ng/ml IL-6 culture medium (control), with graded decitabine concentrations. Cell growth was evaluated by quantifying intracellular ATP amount with a Cell Titer Glo Luminescent Assay (Promega, Madison, Wis.) with a Centro LB 960 luminometer (Berthold Technologies, Bad Wildbad, Germany).
The inventors sought to determine whether DM Score could predict for the sensitivity of 10 HMCLs to DNMT inhibitor. Starting from a large cohort of 40 HMCLs (22), the 10 HMCLs with the highest or lowest DM Score were selected to assay decitabine sensitivity.
HMCLs were cultured with graded 5-azacitidine (Sigma, St. Louis, Mo.) concentrations. HMCLs cell growth was quantified with a Cell Titer Glo Luminescent Assay (Promega, Madison, Wis.) and half inhibitory concentration (IC50) was determined using GraphPad Prism (http://www.graphpad.com/scientific-software/prism/).

HMCLs = assay: Cell viability of HMCLs by trypan blue exclusion; type: cell-based, human; settings: five HMCLs, 0.5 μM for 7 days
Method: (§1) The human MM cell lines XG-5, XG-6, XG-7, XG-20 and LP1 were grown in RPMI 1640 supplemented with 10% fetal bovine serum and 2 ng/ml recombinant IL-6. Cells (2×10^5/mL) were treated either with 0.5 μmol/L 5-Aza-2′-deoxycytidine (decitabine) (Sigma, St. Louis, Mo.) for 7 days.

[2] = Cell viability of HMCLs by trypan blue exclusion; type: cell-based, human; settings: human; for viability at 3 days, 0.5 μM: Day 3, mean ± SD; for viability at 7 days, 0.5 μM: Day 7, mean ± SD
Method: as §1

[3] = LP1 multiple myeloma cells, LP1, 0.5 μM decitabine
[4] = XG-5 multiple myeloma cells, XG-5, 0.5 μM decitabine
[5] = XG-6 multiple myeloma cells, XG-6, 0.5 μM decitabine
[6] = XG-7 multiple myeloma cells, XG-7, 0.5 μM decitabine
[7] = XG-20 multiple myeloma cells, XG-20, 0.5 μM decitabine

With `Nc1ncn([C@H]2C[C@H](O)[C@@H](CO)O2)c(=O)n1` [decitabine, 5-Aza-2′-deoxycytidine] the “fold higher decitabine sensitivity” value ([1]; HMCLs with highest DM Score versus low DM Score, P=0.01) was 11 fold, the IC50 ([1]; decitabine, 5 HMCLs with low DM Score, read-out: IC50 range) was 2920 to 60800 nM and the IC50 ([1]; read-out: IC50 range, decitabine, 5 HMCLs with the highest DM Score) was 150 to 2220 nM. For the same compound, the IC50 ([1]; read-out: median IC50, decitabine, 5 HMCLs with low DM Score) was 7940 nM, the IC50 ([1]; read-out: median IC50, decitabine, 5 HMCLs with the highest DM Score) was 680 nM and the “sensitivity class of HMCLs” value ([1]; XG6, XG20, XG13, SKMM2, LP1 (lowest DM Score)) was “Resistant”. The “sensitivity class of HMCLs” value ([1]; XG12, XG16, XG19, JJN3, RPMI8226 (highest DM Score)) was “Sensitive”, the “effect on myeloma cell viability” value (HMCLs) was “did not affect myeloma cell viability” and the viability at 3 days, 0.5 μM [2, 3] was 91 ± 2%. The viability at 7 days, 0.5 μM [2, 3] was 86 ± 4%, the viability at 3 days, 0.5 μM [2, 4] was 65 ± 5% and the viability at 7 days, 0.5 μM [2, 4] was 69 ± 6%. For the same compound, the viability at 3 days, 0.5 μM [2, 5] was 90 ± 1%, the viability at 7 days, 0.5 μM [2, 5] was 90 ± 1% and the viability at 3 days, 0.5 μM [2, 6] was 90 ± 2%. It also gave a viability at 7 days, 0.5 μM [2, 6] of 85 ± 5%, a viability at 3 days, 0.5 μM [2, 7] of 91 ± 3% and a viability at 7 days, 0.5 μM [2, 7] of 83 ± 5%.
